Test results as given in publication PMC12155096 (International Journal of Molecular Sciences, 2025).
Read-outs that look alike come from different tables or passages of the source.

What was measured:
[1] = biological target: human CYP2D6 (Homo sapiens, UniProt P10635)
[2] = biological target: T1, human CYP1A2 (Homo sapiens, UniProt P05177); assay: biochemical
T1 sequence (P05177 1-516): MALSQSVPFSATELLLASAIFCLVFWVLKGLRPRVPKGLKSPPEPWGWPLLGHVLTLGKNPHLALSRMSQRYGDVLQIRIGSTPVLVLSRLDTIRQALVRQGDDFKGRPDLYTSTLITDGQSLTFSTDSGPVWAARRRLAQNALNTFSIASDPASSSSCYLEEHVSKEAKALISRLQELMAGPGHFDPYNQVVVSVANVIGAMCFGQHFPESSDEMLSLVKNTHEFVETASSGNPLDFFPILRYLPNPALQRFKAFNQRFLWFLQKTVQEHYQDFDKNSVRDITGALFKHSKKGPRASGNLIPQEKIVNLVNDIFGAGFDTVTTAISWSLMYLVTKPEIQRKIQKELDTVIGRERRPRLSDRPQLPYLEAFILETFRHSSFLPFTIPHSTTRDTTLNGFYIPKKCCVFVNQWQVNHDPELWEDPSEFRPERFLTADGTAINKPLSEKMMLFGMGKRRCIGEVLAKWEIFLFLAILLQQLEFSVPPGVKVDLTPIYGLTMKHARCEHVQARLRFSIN

[3] = biological target: T2, human CYP2C9 (Homo sapiens, UniProt P11712); assay: biochemical
T2 sequence (P11712 whole entry): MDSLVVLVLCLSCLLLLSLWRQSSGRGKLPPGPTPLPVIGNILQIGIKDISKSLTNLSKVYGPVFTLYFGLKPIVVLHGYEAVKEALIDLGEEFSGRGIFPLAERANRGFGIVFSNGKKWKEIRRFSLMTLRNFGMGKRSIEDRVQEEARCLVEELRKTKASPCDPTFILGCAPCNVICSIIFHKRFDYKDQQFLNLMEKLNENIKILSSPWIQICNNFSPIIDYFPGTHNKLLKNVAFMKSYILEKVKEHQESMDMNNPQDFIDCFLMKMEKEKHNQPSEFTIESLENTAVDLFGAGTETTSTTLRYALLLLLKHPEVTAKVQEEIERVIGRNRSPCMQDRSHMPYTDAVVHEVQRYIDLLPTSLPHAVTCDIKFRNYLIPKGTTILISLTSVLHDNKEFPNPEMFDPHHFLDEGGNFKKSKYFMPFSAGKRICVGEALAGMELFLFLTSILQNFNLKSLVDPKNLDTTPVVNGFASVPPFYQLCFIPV

[4] = biological target: T3, human CYP2C19 (Homo sapiens, UniProt P33261); assay: biochemical
T3 sequence (P33261 whole entry): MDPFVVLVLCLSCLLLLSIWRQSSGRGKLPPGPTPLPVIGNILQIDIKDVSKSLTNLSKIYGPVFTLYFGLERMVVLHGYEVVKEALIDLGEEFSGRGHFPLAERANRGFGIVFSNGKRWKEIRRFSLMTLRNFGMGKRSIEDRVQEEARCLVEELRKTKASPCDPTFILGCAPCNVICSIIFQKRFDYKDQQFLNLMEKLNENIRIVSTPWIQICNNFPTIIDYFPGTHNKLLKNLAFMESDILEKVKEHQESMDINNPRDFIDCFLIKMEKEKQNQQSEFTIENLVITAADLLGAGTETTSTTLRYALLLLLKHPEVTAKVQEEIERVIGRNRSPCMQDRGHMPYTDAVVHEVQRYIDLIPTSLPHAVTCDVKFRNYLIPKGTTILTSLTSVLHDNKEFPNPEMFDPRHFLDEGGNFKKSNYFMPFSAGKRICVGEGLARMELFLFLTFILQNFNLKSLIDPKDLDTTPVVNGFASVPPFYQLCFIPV

[5] = biological target: CYP3A4 (Homo sapiens, UniProt P08684); assay: biochemical
CYP3A4, sequence (P08684 whole entry): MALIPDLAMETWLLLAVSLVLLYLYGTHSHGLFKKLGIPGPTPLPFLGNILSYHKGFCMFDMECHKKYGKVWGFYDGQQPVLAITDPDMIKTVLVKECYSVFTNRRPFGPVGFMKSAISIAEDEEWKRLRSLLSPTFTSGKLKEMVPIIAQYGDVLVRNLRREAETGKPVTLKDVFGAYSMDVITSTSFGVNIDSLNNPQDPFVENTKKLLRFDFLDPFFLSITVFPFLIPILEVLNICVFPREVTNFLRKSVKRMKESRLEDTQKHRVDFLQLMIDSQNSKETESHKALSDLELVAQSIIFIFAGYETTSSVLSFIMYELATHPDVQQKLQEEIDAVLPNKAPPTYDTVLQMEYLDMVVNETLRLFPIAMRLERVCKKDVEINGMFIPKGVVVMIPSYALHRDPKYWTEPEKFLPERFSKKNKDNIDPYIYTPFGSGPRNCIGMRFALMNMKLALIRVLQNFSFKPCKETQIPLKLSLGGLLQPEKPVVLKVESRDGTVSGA

[6] = biological target: T3, human CYP2C19
[7] = biological target: T1, human CYP1A2
[8] = biological target: T2, human CYP2C9
[9] = CYP1A2 AC50 (half-maximal activity concentration)
[10] = CYP2C9 AC50 (half-maximal activity concentration)
[11] = CYP2C19 AC50 (half-maximal activity concentration)
[12] = CYP3A4 AC50 (half-maximal activity concentration)

human CYP2D6, sequence (P10635 whole entry): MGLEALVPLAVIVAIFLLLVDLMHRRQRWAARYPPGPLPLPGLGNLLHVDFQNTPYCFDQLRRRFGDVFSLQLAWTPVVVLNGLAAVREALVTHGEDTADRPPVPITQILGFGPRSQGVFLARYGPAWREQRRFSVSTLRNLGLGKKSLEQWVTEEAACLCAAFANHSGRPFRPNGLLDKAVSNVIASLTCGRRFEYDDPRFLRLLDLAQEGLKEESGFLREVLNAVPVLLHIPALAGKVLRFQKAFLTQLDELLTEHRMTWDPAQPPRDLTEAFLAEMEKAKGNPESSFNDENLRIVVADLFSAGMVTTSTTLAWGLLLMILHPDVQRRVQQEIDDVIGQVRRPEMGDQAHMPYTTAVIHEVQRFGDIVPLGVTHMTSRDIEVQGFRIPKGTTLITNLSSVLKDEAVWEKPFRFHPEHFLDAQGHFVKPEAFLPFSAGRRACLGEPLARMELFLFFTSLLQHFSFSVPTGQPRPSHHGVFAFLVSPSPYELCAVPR

Compound	CYP2D6 AC50 (half-maximal activity concentration) [1]	AC50 [2, 9] [µM]	AC50 [3, 10] [µM]	AC50 [4, 11] [µM]	AC50 [5, 12] [µM]	CYP2C19 AC50 (half-maximal activity concentration) [6]	AC50 [2] [µM]	AC50 [3] [µM]	AC50 [5] [µM]	AC50 [4] [µM]	CYP1A2 AC50 (half-maximal activity concentration) [7]	CYP2C9 AC50 (half-maximal activity concentration) [8]
Cc1c(C)c([N+](=O)[O-])c(C(C)(C)C)c([N+](=O)[O-])c1C	Inactive	17.5	51.7	22.8	12.2							
O=[N+]([O-])c1cc(C(F)(F)F)cc([N+](=O)[O-])c1Cl	Inconclusive inhibitor	64.7	18	56.7	49.2							
CC=CC(=O)N(CC)c1ccccc1C (mixture of isomers) [Crotamiton]	Inactive	31.4	40.1		7.51	Inconclusive inhibitor						
N#CCCC(Br)(C#N)CBr (centres unmarked) [1,2-Dibromo-2,4-dicyanobutane]	Inconclusive inhibitor	14.6	8.43	11.5	9.92							
c1cnc2c(c1)ccc1cccnc12 [1,10-Phenanthroline]	Inconclusive inhibitor	11.7	4.65	11.9	69.5							
CCCCCCCCCCCCN1CCCC1=O [1-Dodecyl-2-pyrrolidinone]	Inactive					Inconclusive inhibitor	29.7	37.9	9.84			
O=[N+]([O-])c1cccc2ccccc12 [1-Nitronaphthalene]	Inactive	2.96	31.2	59.8	15.6							
Oc1c(Cl)cc(Cl)c(Cl)c1Cl [2,3,4,6-Tetrachlorophenol]	Inactive	57.1	28.3		67	Inactive						
Oc1c(Cl)c(Cl)cc(Cl)c1Cl [2,3,5,6-Tetrachlorophenol]	Inactive	66.6	22.7		58.1	Inconclusive inhibitor						
O=C(O)c1cc(I)cc(I)c1I [2,3,5-Triiodobenzoic acid]	Inactive	57.3	20.9		75.1	Inconclusive inhibitor						
Oc1c(Cl)ccc(Cl)c1Cl [2,3,6-Trichlorophenol]	Inconclusive inhibitor	37	35.7		55.4	Inconclusive inhibitor						
CCCCOC(=O)COc1ccc(Cl)cc1Cl [2,4-D 1-butyl ester]	Inactive						35.7 ± 4.11	35.6	2.69 ± 0.56	30.5 ± 10		
CC(C)OC(=O)COc1ccc(Cl)cc1Cl [2,4-D isopropyl ester]	Inconclusive inhibitor	13.6	35	15.5	7.02							
CCCCCCC(C=O)=Cc1ccccc1 [2-Benzylideneoctanal]	Inactive	13.8	31.1	25.6	7.81							
CCCCCCCCCC(C)C=O (centres unmarked) [2-Methylundecanal]	Inactive	74.2	65.1		87.3	Inconclusive inhibitor						
O=[N+]([O-])c1ccccc1-c1ccccc1 [2-Nitro-1,1'-biphenyl]	Inactive	1.66	22.6	30.4	34.3							
O=C(OCCc1ccccc1)c1ccccc1 [2-Phenylethyl benzoate]	Inconclusive inhibitor						17.1	30.6	7.51	13.5		
Oc1nc(Cl)c(Cl)cc1Cl [3,5,6-Trichloro-2-pyridinol]	Inconclusive inhibitor	47.9	45.4		65.8	Inconclusive inhibitor						
Nc1cc(Cl)cc(Cl)c1 [3,5-Dichloroaniline]	Inactive	30.7	74.5	17.7	43.2							

Compound	CYP2D6 AC50 (half-maximal activity concentration) [1]	AC50 [2, 9] [µM]	AC50 [3, 10] [µM]	AC50 [4, 11] [µM]	AC50 [5, 12] [µM]	CYP2C19 AC50 (half-maximal activity concentration) [6]	AC50 [2] [µM]	AC50 [3] [µM]	AC50 [5] [µM]	AC50 [4] [µM]	CYP1A2 AC50 (half-maximal activity concentration) [7]	CYP2C9 AC50 (half-maximal activity concentration) [8]
O=C(C=Cc1ccccc1)OCC=Cc1ccccc1 [3-Phenyl-2-propen-1-yl 3-phenylacrylate]	Inactive	25.3	29.4	31.8	24.9							
Brc1ccc(Oc2ccc(Br)cc2)cc1 [4,4'-Dibromodiphenyl ether]	Inactive	18.8	24.6	3.02	28.4							
O=C(c1ccc(Cl)cc1)c1ccc(Cl)cc1 [4,4'-Dichlorobenzophenone]	Inactive	2.34	6.1	1.67	11							
O=C(c1ccccc1)c1ccc(Cl)cc1 [4-Chlorobenzophenone]	Inconclusive inhibitor						3.84	50	35.6	14.7		
CCNc1nc(NC(C)C)nc(SC)n1 [Ametryn]	Inactive	9.81	20.8		29.2	Inconclusive inhibitor						
O=C(/C=C/c1ccccc1)OCc1ccccc1 [Benzyl cinnamate]	Inactive	7.8	12.4	13.6	21.5							
O=[N+]([O-])C(Br)(CO)CO [Bronopol]	Inactive	14.2	4.61	5.81	5.19							
CC(C)N(Cc1ccccc1)C(=O)C(C)(C)C [Butam]	Inactive	32.6	34.3	15.1	9.61							
C[Si](Cl)(c1ccccc1)c1ccccc1 [Chloro(methyl)diphenylsilane]	Inconclusive inhibitor	32.2	3.53	2.26	23.4							
CCOCCOC(=O)C=Cc1ccc(OC)cc1 [Cinoxate]	Inactive	7.48	13.9	29.2	21.9							
CCOC(=O)NC(C)(C)Cc1ccc(Cl)cc1 [Cloforex]	Inconclusive inhibitor	7.64	15.6	5.34	14.6							
CCOC(=O)CCCCCCCCC(=O)OCC [Diethyl decanedioate]	Inactive	35.2	42.2		26.2	Inconclusive inhibitor						
CCC(C)c1cc([N+](=O)[O-])cc([N+](=O)[O-])c1O (centres unmarked) [Dinoseb]		58.1		76.8	33.9							
CC(C)(C)c1cc([N+](=O)[O-])cc([N+](=O)[O-])c1O [Dinoterb]	Inconclusive inhibitor	48	17.8		24.7	Inconclusive inhibitor						
Oc1c(Br)c(Br)c(Br)c(Br)c1Br [Pentabromophenol]	Inactive	57.8	30.1		70.2	Inconclusive						
Oc1c(Cl)c(Cl)c(Cl)c(Cl)c1Cl [Pentachlorophenol]	Inactive	67.4		52.3	54.4							
O=C(Oc1ccccc1)c1ccccc1 [Phenyl benzoate]	Inactive					Inactive	71	62.1	58.7			
O=C1OC(=O)c2c(Cl)c(Cl)c(Cl)c(Cl)c21 [Tetrachlorophthalic anhydride]	Inconclusive inhibitor			89.4	34.7						Inactive	Inactive
